Test results published in the supplement of paper PMC10307832.

How the values were obtained:
Assay in all cases: relative viability (nuclei count vs DMSO), 5 days (fraction); higher = more cells survive
Vemurafenib + Decitabine = compound: CCCS(=O)(=O)Nc1ccc(F)c(C(=O)c2c[nH]c3ncc(-c4ccc(Cl)cc4)cc23)c1F [Vemurafenib] + Nc1ncn([C@H]2C[C@H](O)[C@@H](CO)O2)c(=O)n1 [Decitabine] (partner 2 µM)
Outline: (§1)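 Relative viability divides the nuclei count in treated wells by that in vehicle wells. Lung cancer cell lines were seeded in 1536-well plates, dosed by pin tool the next day, and fixed and stained after 5 days in one step with final 0.05% Triton X-100, 1% formaldehyde and 1 ug/ml Hoechst. Dosing was a single drug or a fixed anchor-drug dose plus five library-drug doses (not always all listed) in √10 steps, and values are medians of duplicate plates imaged at 4×.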

OSI-027 + Trametinib = compound: COc1cccc2cc(-c3nc([C@H]4CC[C@H](C(=O)O)CC4)n4ncnc(N)c34)[nH]c12 [OSI-027] + CC(=O)Nc1cccc(-n2c(=O)n(C3CC3)c(=O)c3c(Nc4ccc(I)cc4F)n(C)c(=O)c(C)c32)c1 [Trametinib] (partner 0.02 µM)
Outline: as §1

OSI-027 + Palbociclib = compound: COc1cccc2cc(-c3nc([C@H]4CC[C@H](C(=O)O)CC4)n4ncnc(N)c34)[nH]c12 [OSI-027] + CC(=O)c1c(C)c2cnc(Nc3ccc(N4CCNCC4)cn3)nc2n(C2CCCC2)c1=O [Palbociclib] (partner 0.5 µM)
Outline: as §1

Alpelisib + Palbociclib = compound: Cc1nc(NC(=O)N2CCC[C@H]2C(N)=O)sc1-c1ccnc(C(C)(C)C(F)(F)F)c1 [Alpelisib] + CC(=O)c1c(C)c2cnc(Nc3ccc(N4CCNCC4)cn3)nc2n(C2CCCC2)c1=O [Palbociclib] (partner 0.5 µM)
Outline: as §1

Cell Line: NCI-H522
- relative viability (Vemurafenib + Decitabine; first compound 0.03162 µM): 0.668
- relative viability (Vemurafenib + Decitabine; first compound 0.1 µM): 0.607
- relative viability (Vemurafenib + Decitabine; first compound 0.3162 µM): 0.624
- relative viability (Vemurafenib + Decitabine; first compound 1 µM): 0.692
- relative viability (OSI-027 + Trametinib; first compound 0.01 µM): 0.691
- relative viability (OSI-027 + Trametinib; first compound 0.03162 µM): 0.709
- relative viability (OSI-027 + Trametinib; first compound 0.1 µM): 0.725
- relative viability (OSI-027 + Trametinib; first compound 0.3162 µM): 0.632
- relative viability (OSI-027 + Trametinib; first compound 1 µM): 0.463
- relative viability (OSI-027 + Palbociclib; first compound 0.01 µM): 0.995
- relative viability (OSI-027 + Palbociclib; first compound 0.03162 µM): 0.938
- relative viability (OSI-027 + Palbociclib; first compound 0.1 µM): 1.04
- relative viability (OSI-027 + Palbociclib; first compound 0.3162 µM): 0.79
- relative viability (OSI-027 + Palbociclib; first compound 1 µM): 0.535
- relative viability (Alpelisib + Palbociclib; first compound 0.04 µM): 0.993
- relative viability (Alpelisib + Palbociclib; first compound 0.1265 µM): 0.752
- relative viability (Alpelisib + Palbociclib; first compound 0.4 µM): 0.87
- relative viability (Alpelisib + Palbociclib; first compound 1.265 µM): 0.944
- relative viability (Alpelisib + Palbociclib; first compound 4 µM): 0.657

Cell Line: NCI-H647
- relative viability (Vemurafenib + Decitabine; first compound 0.03162 µM): 0.478
- relative viability (Vemurafenib + Decitabine; first compound 0.1 µM): 0.396
- relative viability (Vemurafenib + Decitabine; first compound 0.3162 µM): 0.38
- relative viability (Vemurafenib + Decitabine; first compound 1 µM): 0.444
- relative viability (OSI-027 + Trametinib; first compound 0.01 µM): 0.367
- relative viability (OSI-027 + Trametinib; first compound 0.03162 µM): 0.395
- relative viability (OSI-027 + Trametinib; first compound 0.1 µM): 0.438
- relative viability (OSI-027 + Trametinib; first compound 0.3162 µM): 0.385
- relative viability (OSI-027 + Trametinib; first compound 1 µM): 0.236
- relative viability (OSI-027 + Palbociclib; first compound 0.01 µM): 0.389
- relative viability (OSI-027 + Palbociclib; first compound 0.03162 µM): 0.371
- relative viability (OSI-027 + Palbociclib; first compound 0.1 µM): 0.351
- relative viability (OSI-027 + Palbociclib; first compound 0.3162 µM): 0.354
- relative viability (OSI-027 + Palbociclib; first compound 1 µM): 0.155
- relative viability (Alpelisib + Palbociclib; first compound 0.04 µM): 0.322
- relative viability (Alpelisib + Palbociclib; first compound 0.1265 µM): 0.447
- relative viability (Alpelisib + Palbociclib; first compound 0.4 µM): 0.421
- relative viability (Alpelisib + Palbociclib; first compound 1.265 µM): 0.289
- relative viability (Alpelisib + Palbociclib; first compound 4 µM): 0.275

Cell Line: NCI-H650
- relative viability (Vemurafenib + Decitabine; first compound 0.03162 µM): 0.311
- relative viability (Vemurafenib + Decitabine; first compound 0.1 µM): 0.334
- relative viability (Vemurafenib + Decitabine; first compound 0.3162 µM): 0.308
- relative viability (Vemurafenib + Decitabine; first compound 1 µM): 0.33
- relative viability (OSI-027 + Trametinib; first compound 0.01 µM): 0.915
- relative viability (OSI-027 + Trametinib; first compound 0.03162 µM): 1.11
- relative viability (OSI-027 + Trametinib; first compound 0.1 µM): 0.909
- relative viability (OSI-027 + Trametinib; first compound 0.3162 µM): 0.851
- relative viability (OSI-027 + Trametinib; first compound 1 µM): 0.454
- relative viability (OSI-027 + Palbociclib; first compound 0.01 µM): 0.333
- relative viability (OSI-027 + Palbociclib; first compound 0.03162 µM): 0.35
- relative viability (OSI-027 + Palbociclib; first compound 0.1 µM): 0.302
- relative viability (OSI-027 + Palbociclib; first compound 0.3162 µM): 0.29
- relative viability (OSI-027 + Palbociclib; first compound 1 µM): 0.205
- relative viability (Alpelisib + Palbociclib; first compound 0.04 µM): 0.315
- relative viability (Alpelisib + Palbociclib; first compound 0.1265 µM): 0.345
- relative viability (Alpelisib + Palbociclib; first compound 0.4 µM): 0.316
- relative viability (Alpelisib + Palbociclib; first compound 1.265 µM): 0.263
- relative viability (Alpelisib + Palbociclib; first compound 4 µM): 0.265

Cell Line: NCI-H661
- relative viability (Vemurafenib + Decitabine; first compound 0.03162 µM): 0.521
- relative viability (Vemurafenib + Decitabine; first compound 0.1 µM): 0.495
- relative viability (Vemurafenib + Decitabine; first compound 0.3162 µM): 0.567
- relative viability (Vemurafenib + Decitabine; first compound 1 µM): 0.625
- relative viability (OSI-027 + Trametinib; first compound 0.01 µM): 0.545
- relative viability (OSI-027 + Trametinib; first compound 0.03162 µM): 0.479
- relative viability (OSI-027 + Trametinib; first compound 0.1 µM): 0.468
- relative viability (OSI-027 + Trametinib; first compound 0.3162 µM): 0.432
- relative viability (OSI-027 + Trametinib; first compound 1 µM): 0.307
- relative viability (OSI-027 + Palbociclib; first compound 0.01 µM): 0.375
- relative viability (OSI-027 + Palbociclib; first compound 0.03162 µM): 0.424
- relative viability (OSI-027 + Palbociclib; first compound 0.1 µM): 0.368
- relative viability (OSI-027 + Palbociclib; first compound 0.3162 µM): 0.347
- relative viability (OSI-027 + Palbociclib; first compound 1 µM): 0.301
- relative viability (Alpelisib + Palbociclib; first compound 0.04 µM): 0.365
- relative viability (Alpelisib + Palbociclib; first compound 0.1265 µM): 0.367
- relative viability (Alpelisib + Palbociclib; first compound 0.4 µM): 0.411
- relative viability (Alpelisib + Palbociclib; first compound 1.265 µM): 0.412
- relative viability (Alpelisib + Palbociclib; first compound 4 µM): 0.359

Cell Line: NCI-H727
- relative viability (Vemurafenib + Decitabine; first compound 0.03162 µM): 0.688
- relative viability (Vemurafenib + Decitabine; first compound 0.1 µM): 0.762
- relative viability (Vemurafenib + Decitabine; first compound 0.3162 µM): 0.964
- relative viability (Vemurafenib + Decitabine; first compound 1 µM): 0.866
- relative viability (OSI-027 + Trametinib; first compound 0.01 µM): 0.346
- relative viability (OSI-027 + Trametinib; first compound 0.03162 µM): 0.412
- relative viability (OSI-027 + Trametinib; first compound 0.1 µM): 0.349
- relative viability (OSI-027 + Trametinib; first compound 0.3162 µM): 0.387
- relative viability (OSI-027 + Trametinib; first compound 1 µM): 0.395
- relative viability (OSI-027 + Palbociclib; first compound 0.01 µM): 0.655
- relative viability (OSI-027 + Palbociclib; first compound 0.03162 µM): 0.65
- relative viability (OSI-027 + Palbociclib; first compound 0.1 µM): 0.752
- relative viability (OSI-027 + Palbociclib; first compound 0.3162 µM): 0.622
- relative viability (OSI-027 + Palbociclib; first compound 1 µM): 0.625
- relative viability (Alpelisib + Palbociclib; first compound 0.04 µM): 0.569
- relative viability (Alpelisib + Palbociclib; first compound 0.1265 µM): 0.584
- relative viability (Alpelisib + Palbociclib; first compound 0.4 µM): 0.702
- relative viability (Alpelisib + Palbociclib; first compound 1.265 µM): 0.452
- relative viability (Alpelisib + Palbociclib; first compound 4 µM): 0.523

Cell Line: NCI-H838
- relative viability (Vemurafenib + Decitabine; first compound 0.03162 µM): 0.467
- relative viability (Vemurafenib + Decitabine; first compound 0.1 µM): 0.485
- relative viability (Vemurafenib + Decitabine; first compound 0.3162 µM): 0.54
- relative viability (Vemurafenib + Decitabine; first compound 1 µM): 0.598
- relative viability (OSI-027 + Trametinib; first compound 0.01 µM): 0.455
- relative viability (OSI-027 + Trametinib; first compound 0.03162 µM): 0.532
- relative viability (OSI-027 + Trametinib; first compound 0.1 µM): 0.436
- relative viability (OSI-027 + Trametinib; first compound 0.3162 µM): 0.317
- relative viability (OSI-027 + Trametinib; first compound 1 µM): 0.206
- relative viability (OSI-027 + Palbociclib; first compound 0.01 µM): 0.203
- relative viability (OSI-027 + Palbociclib; first compound 0.03162 µM): 0.195
- relative viability (OSI-027 + Palbociclib; first compound 0.1 µM): 0.191
- relative viability (OSI-027 + Palbociclib; first compound 0.3162 µM): 0.165
- relative viability (OSI-027 + Palbociclib; first compound 1 µM): 0.168
- relative viability (Alpelisib + Palbociclib; first compound 0.04 µM): 0.246
- relative viability (Alpelisib + Palbociclib; first compound 0.1265 µM): 0.222
- relative viability (Alpelisib + Palbociclib; first compound 0.4 µM): 0.24
- relative viability (Alpelisib + Palbociclib; first compound 1.265 µM): 0.18
- relative viability (Alpelisib + Palbociclib; first compound 4 µM): 0.182

Cell Line: NCI-H1355
- relative viability (Vemurafenib + Decitabine; first compound 0.03162 µM): 0.344
- relative viability (Vemurafenib + Decitabine; first compound 0.1 µM): 0.348
- relative viability (Vemurafenib + Decitabine; first compound 0.3162 µM): 0.363
- relative viability (Vemurafenib + Decitabine; first compound 1 µM): 0.37
- relative viability (OSI-027 + Trametinib; first compound 0.01 µM): 0.401
- relative viability (OSI-027 + Trametinib; first compound 0.03162 µM): 0.458
- relative viability (OSI-027 + Trametinib; first compound 0.1 µM): 0.341
- relative viability (OSI-027 + Trametinib; first compound 0.3162 µM): 0.3
- relative viability (OSI-027 + Trametinib; first compound 1 µM): 0.252
- relative viability (OSI-027 + Palbociclib; first compound 0.01 µM): 0.4
- relative viability (OSI-027 + Palbociclib; first compound 0.03162 µM): 0.392
- relative viability (OSI-027 + Palbociclib; first compound 0.1 µM): 0.317
- relative viability (OSI-027 + Palbociclib; first compound 0.3162 µM): 0.264
- relative viability (OSI-027 + Palbociclib; first compound 1 µM): 0.257
- relative viability (Alpelisib + Palbociclib; first compound 0.04 µM): 0.403
- relative viability (Alpelisib + Palbociclib; first compound 0.1265 µM): 0.412
- relative viability (Alpelisib + Palbociclib; first compound 0.4 µM): 0.377
- relative viability (Alpelisib + Palbociclib; first compound 1.265 µM): 0.341
- relative viability (Alpelisib + Palbociclib; first compound 4 µM): 0.267

Cell Line: NCI-H1395
- relative viability (Vemurafenib + Decitabine; first compound 0.03162 µM): 0.726
- relative viability (Vemurafenib + Decitabine; first compound 0.1 µM): 0.698
- relative viability (Vemurafenib + Decitabine; first compound 0.3162 µM): 0.706
- relative viability (Vemurafenib + Decitabine; first compound 1 µM): 0.72
- relative viability (OSI-027 + Trametinib; first compound 0.01 µM): 1.1
- relative viability (OSI-027 + Trametinib; first compound 0.03162 µM): 1.02
- relative viability (OSI-027 + Trametinib; first compound 0.1 µM): 0.957
- relative viability (OSI-027 + Trametinib; first compound 0.3162 µM): 0.863
- relative viability (OSI-027 + Trametinib; first compound 1 µM): 0.648
- relative viability (OSI-027 + Palbociclib; first compound 0.01 µM): 0.654
- relative viability (OSI-027 + Palbociclib; first compound 0.03162 µM): 0.609
- relative viability (OSI-027 + Palbociclib; first compound 0.1 µM): 0.529
- relative viability (OSI-027 + Palbociclib; first compound 0.3162 µM): 0.45
- relative viability (OSI-027 + Palbociclib; first compound 1 µM): 0.505
- relative viability (Alpelisib + Palbociclib; first compound 0.04 µM): 0.634
- relative viability (Alpelisib + Palbociclib; first compound 0.1265 µM): 0.651
- relative viability (Alpelisib + Palbociclib; first compound 0.4 µM): 0.649
- relative viability (Alpelisib + Palbociclib; first compound 1.265 µM): 0.475
- relative viability (Alpelisib + Palbociclib; first compound 4 µM): 0.589
